What was measured:
Adenosine receptor A1 = biological target: T1, Adenosine receptor A1 (Homo sapiens, UniProt P30542); experiment: Adenosine Receptor Binding Assay
T1 sequence (P30542 whole entry): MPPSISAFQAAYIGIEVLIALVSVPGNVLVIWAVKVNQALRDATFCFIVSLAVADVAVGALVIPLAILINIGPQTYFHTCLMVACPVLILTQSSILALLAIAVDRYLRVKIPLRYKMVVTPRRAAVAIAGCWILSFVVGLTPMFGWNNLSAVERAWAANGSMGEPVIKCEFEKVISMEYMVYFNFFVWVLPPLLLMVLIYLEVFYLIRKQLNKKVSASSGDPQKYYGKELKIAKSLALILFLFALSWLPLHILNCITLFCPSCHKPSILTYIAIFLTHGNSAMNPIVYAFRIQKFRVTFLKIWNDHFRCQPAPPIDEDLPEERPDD
Protocol: (§1) Inhibition binding assays were performed using 0.2 µg of membranes prepared from HEK293 cells infected with BacMam human adenosine A2A receptor or 1.4 µg of membranes prepared from HEK293 cells infected with BacMam human adenosine A1 receptor. Membranes were incubated in 50 mM Tris-HCl (HEK293-hA2A; pH 7.4) or 50 mM Tris-HCl, 100 mM NaCl, 10 mM MgCl2 (CHO-hA1; pH 7.4) in the presence of varying concentrations of test compound and 1 nM [3H]ZM241385 (HEK293-hA2A) or [3H]DPCPX (CHO-hA1) at 25° C. for 1 h. The assay was then terminated by rapid filtration onto GF/B grade Unifilter plates using a TomTec cell harvester, followed by 5 × 0.5 ml washes with ddH2O. […] Bound radioactivity was determined by liquid scintillation counting and inhibition curves were analysed using a four-parameter logistic equation. IC50 values were converted to Ki values with the Cheng-Prusoff equation using a KD value derived from saturation binding studies.

Adenosine receptor A2a = Adenosine receptor A2a (Homo sapiens, UniProt P29274); experiment: Adenosine Receptor Binding Assay
Sequence of Adenosine receptor A2a (P29274 whole entry): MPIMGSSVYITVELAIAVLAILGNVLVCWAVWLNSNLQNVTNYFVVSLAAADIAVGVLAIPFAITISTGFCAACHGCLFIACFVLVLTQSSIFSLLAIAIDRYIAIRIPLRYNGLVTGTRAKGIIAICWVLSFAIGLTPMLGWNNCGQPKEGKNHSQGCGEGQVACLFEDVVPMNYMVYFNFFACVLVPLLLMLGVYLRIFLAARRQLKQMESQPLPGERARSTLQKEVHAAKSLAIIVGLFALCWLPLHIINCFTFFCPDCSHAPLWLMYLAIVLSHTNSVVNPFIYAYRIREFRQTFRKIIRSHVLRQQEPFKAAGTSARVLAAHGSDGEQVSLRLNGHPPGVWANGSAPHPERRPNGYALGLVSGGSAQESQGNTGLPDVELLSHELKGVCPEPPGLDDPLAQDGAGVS
Protocol: as §1

- Ki (Adenosine receptor A1): 25.1 nM
- Ki (Adenosine receptor A2a): 0.631 nM
Compound: Cc1cc(-c2c(-c3ccccc3)nc(N)n3c(=O)n(Cc4ncc[nH]4)nc23)cc(C)n1 [US20230271964, Example 1-24]
